We go through 21 compounds from ChEMBL document CHEMBL1154168, “New 2-aryloxy-3-phenyl-propanoic acids as peroxisome proliferator-activated receptors alpha/gamma dual agonists with improved potency and reduced adverse effects on skeletal muscle function” (J Med Chem, 2009).

Assay [1] concerns Extensor digitorum longus. Briefly: Inhibition of resting potassium conductance in Wistar rat extensor digitorum longus muscle by electrophysiology method. Type of assay: functional, tissue-based.
The target in assay [2] is T1, Chloride channel isoform 1 (Rattus norvegicus) (UniProt Q7TT78).
T1 sequence (whole entry): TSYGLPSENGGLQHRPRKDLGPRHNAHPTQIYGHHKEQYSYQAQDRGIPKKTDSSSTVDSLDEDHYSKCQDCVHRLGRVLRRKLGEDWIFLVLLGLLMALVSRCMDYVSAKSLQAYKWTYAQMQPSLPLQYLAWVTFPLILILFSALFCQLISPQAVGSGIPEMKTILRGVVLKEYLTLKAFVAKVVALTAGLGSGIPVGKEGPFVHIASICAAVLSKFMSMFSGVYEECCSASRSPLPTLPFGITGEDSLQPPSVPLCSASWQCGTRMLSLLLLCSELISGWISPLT
Briefly: Inhibition of CIC1 in Wistar rat extensor digitorum longus muscle assessed as decrease in resting chloride channel conductance at 50 uM by electrophysiology method. Type of assay: tissue-based. Further details: scale not given: the % may be the effect or the level left.

Assay [3] addresses T2, Peroxisome proliferator-activated receptor alpha (Homo sapiens, UniProt Q07869).
T2 sequence (Q07869 whole entry): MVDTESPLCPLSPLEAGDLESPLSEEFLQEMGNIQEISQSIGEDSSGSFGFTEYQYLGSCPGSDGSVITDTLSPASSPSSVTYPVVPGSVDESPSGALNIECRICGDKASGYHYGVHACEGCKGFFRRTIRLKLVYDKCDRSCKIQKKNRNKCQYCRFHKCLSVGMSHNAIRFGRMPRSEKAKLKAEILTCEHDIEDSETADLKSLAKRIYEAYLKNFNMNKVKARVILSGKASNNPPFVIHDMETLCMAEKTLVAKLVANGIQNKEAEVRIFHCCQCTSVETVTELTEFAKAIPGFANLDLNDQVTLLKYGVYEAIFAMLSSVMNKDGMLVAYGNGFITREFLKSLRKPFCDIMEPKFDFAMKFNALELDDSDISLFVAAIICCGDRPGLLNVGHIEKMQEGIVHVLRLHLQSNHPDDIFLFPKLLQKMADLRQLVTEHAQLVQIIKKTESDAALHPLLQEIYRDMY
Description: Agonist activity at GAL4-tagged human PPARalpha ligand binding domain expressed in human HepG2 cells assessed as receptor transactivation by luciferase reporter gene assay. In kind it is cell-based. On the technique in general: Reporter assays use an easily measured gene product as a stand-in for the process of interest.

The target in assay [4] is T1, Chloride channel isoform 1 (Rattus norvegicus). Description: Inhibition of CIC1 in Wistar rat extensor digitorum longus muscle assessed as decrease in resting chloride channel conductance at 100 uM by electrophysiology method. Further details: scale not given: the % may be the effect or the level left. Type of assay: tissue-based.
Assay [5] deals with T3, Peroxisome proliferator-activated receptor gamma (Homo sapiens, UniProt P37231).
T3 sequence (P37231 whole entry): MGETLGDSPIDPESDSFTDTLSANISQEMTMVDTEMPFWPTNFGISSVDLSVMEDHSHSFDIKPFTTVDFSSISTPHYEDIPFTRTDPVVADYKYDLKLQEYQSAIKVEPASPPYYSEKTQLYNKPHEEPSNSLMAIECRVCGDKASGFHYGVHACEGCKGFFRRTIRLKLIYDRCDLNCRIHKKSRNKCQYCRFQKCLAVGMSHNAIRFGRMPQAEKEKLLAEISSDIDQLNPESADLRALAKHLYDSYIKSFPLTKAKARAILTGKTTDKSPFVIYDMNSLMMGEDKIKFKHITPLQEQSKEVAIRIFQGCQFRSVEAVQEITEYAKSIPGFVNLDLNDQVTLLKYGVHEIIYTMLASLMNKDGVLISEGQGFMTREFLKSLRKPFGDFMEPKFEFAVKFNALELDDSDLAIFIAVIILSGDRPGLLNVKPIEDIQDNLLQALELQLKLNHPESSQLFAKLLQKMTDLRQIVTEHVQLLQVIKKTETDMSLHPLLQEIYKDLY

Assay [6] deals with T4, Peroxisome proliferator-activated receptor alpha (Homo sapiens) (UniProt Q07869).
T4 sequence (whole entry): T2 sequence (Q07869 whole entry)
Briefly: Agonist activity at GAL4-tagged human PPARalpha ligand binding domain expressed in human HepG2 cells assessed as receptor transactivation by luciferase reporter gene assay relative to Wy-14643. Type of assay: cell-based.

Assay [7] concerns the target T1, Chloride channel isoform 1 (Rattus norvegicus). Description: Inhibition of CIC1 in Wistar rat extensor digitorum longus muscle assessed as decrease in resting chloride channel conductance at 5 uM by electrophysiology method. In kind it is tissue-based. On the set-up: scale not given: the % may be the effect or the level left.
The target of assay [8] is T3, Peroxisome proliferator-activated receptor gamma. To be noted: hepg2.

Activity calls are given as the source filed them. The calls are words filed in the database; no cut-off is given here.

For `O=C(O)[C@H](Cc1ccccc1)Oc1ccc(Cc2ccccc2)cc1`, the result in assay [1] was inactive. Besides, the figures for the Activity in assay [2] and in assay [4] were 2% and 9%, respectively. Also, the EC50 (usually the concentration needed to bring the measured effect to its halfway point) in assay [3] (read-out: EC50) came out at 0.0115 µM; in assay [5], 0.572 µM.
Turning to `O=C(O)[C@H](Cc1ccccc1)Oc1ccc(CCc2ccccc2)cc1`, the outcome in assay [1] was inactive. In assay [4], the Activity turned out to be 24%. This compound also showed an EC50 in assay [5] of 0.4 µM.
As to `O=C(O)[C@@H](Cc1ccccc1)Oc1ccc(CCc2ccccc2)cc1`, in assay [6], the Efficacy result was “inactive”. Besides, the results for the EC50 result in assay [3] (hepg2) and in assay [5] were “Not Active” and 1.6 µM, respectively.
For the compound `O=C(O)[C@@H](Cc1ccccc1)Oc1ccc(Cc2ccccc2)cc1`, the Efficacy in assay [6] was 82%. For the same compound, the results for the EC50 in assay [3] (read-out: EC50) and in assay [5] were 2.4 µM and 5.7 µM, respectively.
Regarding `CC(C)(Oc1ccc(C(=O)c2ccc(Cl)cc2)cc1)C(=O)O`, in assay [4], the Activity came out at 11%.
With `CC(C)(Oc1ccc(Cl)cc1)C(=O)O`, in assay [4], the Activity was found to be 28%.
`O=C(O)[C@H](Cc1ccccc1)Oc1ccc(-c2ccccc2)cc1`: in assay [6], the Efficacy amounted to 116%. Further, the result in assay [1] was inactive. In addition, the figures for the Activity in assay [7] and in assay [4] were 2% and 12%, respectively.
Take `O=C(O)C(Cc1ccccc1)Oc1ccc(OCc2ccccc2)cc1` (racemic): the Efficacy in assay [6] was 112%. In addition, the figures for the EC50 in assay [3] (read-out: EC50) and in assay [5] were 0.107 µM and 2.4 µM, respectively.
The like results for `O=C(O)C(Cc1ccccc1)Oc1ccc(COc2ccccc2)cc1` (racemic) were, in that order, 107%, 0.6 µM and 3 µM.
Turning to `O=C(O)C(Cc1ccccc1)Oc1ccc(Cc2ccccc2)cc1` (racemic), in assay [6], the Efficacy is 115%. Besides, the EC50 in assay [3] (read-out: EC50) amounted to 0.0159 µM; in assay [5], 0.58 µM.
Turning to `O=C(O)C(Cc1ccccc1)Oc1ccc(CSc2ccccc2)cc1` (racemic), in assay [6], the Efficacy turned out to be 92%. The EC50 in assay [3] (read-out: EC50) worked out at 0.31 µM; in assay [5] it was 0.4 µM.
Turning to `O=C(O)C(Cc1ccccc1)Oc1ccc(SCc2ccccc2)cc1` (racemic), in assay [6], the Efficacy came to 134%. The figures for the EC50 in assay [3] (read-out: EC50) and in assay [5] were 0.488 µM and 1.4 µM, respectively.
With `O=C(Cc1ccccc1)c1ccc(OC(Cc2ccccc2)C(=O)O)cc1` (racemic), in assay [6], the Efficacy stood at 106%. Besides, the EC50 in assay [3] (read-out: EC50) is 1.8 µM; in assay [5], 9.1 µM.
As to `O=C(O)C(Cc1ccccc1)Oc1ccc(CCc2ccccc2)cc1` (racemic), the Efficacy in assay [6] worked out at 86%. The EC50 in assay [3] (read-out: EC50) was 0.33 µM; in assay [5], 0.86 µM.
For the compound `O=C(O)C(Cc1ccccc1)Oc1ccc(C#Cc2ccccc2)cc1` (racemic), the Efficacy in assay [6] is 36%. Besides, the values for the EC50 in assay [3] (read-out: EC50) and in assay [5] were 1.36 µM and 0.54 µM, respectively.
As for `O=C(O)C(Cc1ccccc1)Oc1ccc(CCCc2ccccc2)cc1` (racemic), in assay [6], the Efficacy is 67%. Further, in assay [3] (read-out: EC50), the 50% effective concentration (EC50) stood at 0.72 µM.
As for `O=C(O)C(Cc1ccccc1)Oc1ccc(CNc2ccccc2)cc1` (racemic), in assay [6], the Efficacy turned out to be 120%. Further, the EC50 in assay [3] (read-out: EC50) was determined as 1.4 µM; in assay [5], 9.4 µM.
In the case of `O=C(O)C(Cc1ccccc1)Oc1ccc(Oc2ccccc2)cc1` (racemic), the Efficacy in assay [6] came to 126%. The EC50 in assay [3] (read-out: EC50) amounted to 0.06 µM; in assay [5], 1.21 µM.
As for `O=C(O)C(Cc1ccccc1)Oc1ccc(NCc2ccccc2)cc1` (racemic), the Efficacy in assay [6] came out at 78%. The EC50 in assay [3] (read-out: EC50) amounted to 3.6 µM; in assay [5] it was 13 µM.
In the case of `Cc1cccc(Nc2cc(Cl)nc(SCC(=O)O)n2)c1C` [PIRINIXIC ACID], the EC50 result in assay [8] is recorded as “Not Active”.
Turning to `CN(CCOc1ccc(CC2SC(=O)NC2=O)cc1)c1ccccn1` (stereo not drawn) [ROSIGLITAZONE], the Efficacy result in assay [6] was “inactive”. For the same compound, the EC50 result in assay [3] (hepg2) was “Not Active”.
